Data as given in patent US8372592B2, “High resolution label free analysis of cellular properties” (X-Body, Inc., priority 2008, dated 2013).

Biological target: VCAM-1 and VLA-4 binding (J6 cells, which express VLA-4) (Homo sapiens, UniProt P05556+P13612)
Conditions: J6 cells + 1 mM Mn2+; EDTA added at the 110 minute mark; FIG. 4
Description: VCAM-1 can be fused or bound to a ZZ-binding domain from Protein A. The ZZ-binding domain will specifically bind to IgG immobilized on the surface of the biosensor. Cells that express VLA-4 will bind to the VCAM-1 adhesion protein, which is bound to IgG immobilized to the surface of the biosensor. Therefore cells expressing an adhesion protein ligand will be immobilized to the biosensor surface.
VCAM-1, which was fused to the ZZ-binding domain of Protein A, was added to a biosensor having IgG immobilized to its surface. J6 cells, which express VLA-4, were added to the biosensor surface. […] The “J6 cells+1 mM Mn^2+” and “Buffer” lines shown in FIG. 4 both contained J6 cells and 1 mM Mn^2+. The “J6 cells and EDTA” line contained J6 cells and EDTA. At the 110 minute mark, EDTA was added to the “J6 cells+1 mM Mn^2+” cells.

Chain of VCAM-1 and VLA-4 binding (J6 cells, which express VLA-4) (P13612 34-1032): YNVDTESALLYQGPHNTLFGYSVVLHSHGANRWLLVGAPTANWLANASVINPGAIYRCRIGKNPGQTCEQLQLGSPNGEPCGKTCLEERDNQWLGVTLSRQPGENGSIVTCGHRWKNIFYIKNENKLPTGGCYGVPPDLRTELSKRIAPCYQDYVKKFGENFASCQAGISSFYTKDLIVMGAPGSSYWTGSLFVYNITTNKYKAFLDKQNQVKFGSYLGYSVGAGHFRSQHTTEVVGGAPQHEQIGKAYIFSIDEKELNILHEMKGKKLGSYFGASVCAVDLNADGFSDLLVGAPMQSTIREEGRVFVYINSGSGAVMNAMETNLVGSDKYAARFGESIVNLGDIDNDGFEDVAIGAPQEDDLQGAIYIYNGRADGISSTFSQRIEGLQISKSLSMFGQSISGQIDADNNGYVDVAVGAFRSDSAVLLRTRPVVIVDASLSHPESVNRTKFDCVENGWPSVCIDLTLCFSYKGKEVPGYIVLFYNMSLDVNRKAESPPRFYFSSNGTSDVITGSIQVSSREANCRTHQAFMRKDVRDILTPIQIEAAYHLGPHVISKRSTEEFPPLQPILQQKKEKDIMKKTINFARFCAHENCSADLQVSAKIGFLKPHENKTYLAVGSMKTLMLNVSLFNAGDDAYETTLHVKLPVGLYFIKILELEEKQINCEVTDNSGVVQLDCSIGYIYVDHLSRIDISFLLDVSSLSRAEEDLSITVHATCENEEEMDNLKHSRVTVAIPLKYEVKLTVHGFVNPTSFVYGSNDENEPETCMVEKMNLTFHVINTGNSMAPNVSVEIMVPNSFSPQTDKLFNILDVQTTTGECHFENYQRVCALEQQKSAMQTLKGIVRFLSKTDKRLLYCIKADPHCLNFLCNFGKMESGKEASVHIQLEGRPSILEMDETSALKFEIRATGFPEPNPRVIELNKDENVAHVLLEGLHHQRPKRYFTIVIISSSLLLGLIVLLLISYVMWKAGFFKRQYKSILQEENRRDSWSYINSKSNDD
Chain of VCAM-1 and VLA-4 binding (J6 cells, which express VLA-4) (P05556 21-798): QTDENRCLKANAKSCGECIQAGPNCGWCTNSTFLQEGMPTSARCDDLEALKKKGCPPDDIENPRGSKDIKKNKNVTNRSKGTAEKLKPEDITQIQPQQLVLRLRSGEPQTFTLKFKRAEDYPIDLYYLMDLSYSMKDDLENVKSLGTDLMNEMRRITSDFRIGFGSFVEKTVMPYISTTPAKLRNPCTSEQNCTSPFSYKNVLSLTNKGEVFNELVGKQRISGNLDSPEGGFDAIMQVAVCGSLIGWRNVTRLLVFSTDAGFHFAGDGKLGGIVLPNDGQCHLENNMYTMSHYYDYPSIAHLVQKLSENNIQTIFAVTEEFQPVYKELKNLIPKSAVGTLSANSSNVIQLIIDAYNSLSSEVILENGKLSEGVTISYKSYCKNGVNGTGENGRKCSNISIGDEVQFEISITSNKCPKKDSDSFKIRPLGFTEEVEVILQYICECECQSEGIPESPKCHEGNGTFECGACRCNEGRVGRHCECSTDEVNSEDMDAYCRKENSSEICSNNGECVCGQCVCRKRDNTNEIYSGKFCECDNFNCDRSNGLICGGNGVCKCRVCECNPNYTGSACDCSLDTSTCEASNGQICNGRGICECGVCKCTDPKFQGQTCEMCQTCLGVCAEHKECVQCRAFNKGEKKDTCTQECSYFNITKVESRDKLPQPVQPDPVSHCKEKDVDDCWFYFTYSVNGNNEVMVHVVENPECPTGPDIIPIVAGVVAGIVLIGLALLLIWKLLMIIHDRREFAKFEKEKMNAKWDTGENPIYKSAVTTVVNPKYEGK

amount of binding of cells to the VCAM-1 immobilized to the surface of the biosensor: quickly dropped off
Compound: O=C(O)CN(CCN(CC(=O)O)CC(=O)O)CC(=O)O [EDTA]
